From patent publication US10314775B2, “Methods of increasing hair growth and improving hair appearance” (MyMD Pharmaceuticals, Inc., priority 2016, dated 2019)

Tests used:
MAO-B = molecular target: T1, MAO-B (Homo sapiens, UniProt P27338); test: MAO-Glo luminescent assay, MAO-B inhibition; assay type: biochemical; conditions: FIG. 2; compared with myosmine, anatabine, anabasine, nornicotine
T1 construct: purchased
T1 sequence (P27338 1-520): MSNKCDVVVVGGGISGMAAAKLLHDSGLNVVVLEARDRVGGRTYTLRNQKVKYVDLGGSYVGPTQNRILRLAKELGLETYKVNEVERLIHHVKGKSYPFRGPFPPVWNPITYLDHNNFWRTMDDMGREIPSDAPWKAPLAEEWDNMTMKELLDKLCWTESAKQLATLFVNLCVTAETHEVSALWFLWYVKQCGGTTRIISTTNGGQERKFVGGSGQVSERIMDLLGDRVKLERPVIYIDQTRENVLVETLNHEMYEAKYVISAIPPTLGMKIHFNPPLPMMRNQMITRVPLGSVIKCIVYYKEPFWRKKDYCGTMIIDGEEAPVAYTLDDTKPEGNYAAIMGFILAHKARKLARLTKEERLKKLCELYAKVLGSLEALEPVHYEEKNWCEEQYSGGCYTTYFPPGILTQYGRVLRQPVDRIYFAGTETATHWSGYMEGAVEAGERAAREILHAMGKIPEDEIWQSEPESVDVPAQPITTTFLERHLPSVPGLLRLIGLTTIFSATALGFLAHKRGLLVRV
Excerpt: (§1) This example describes experiments for determining monoamine oxidase (MAO) inhibition for isomyosmine and other alkaloids. MAOs are enzymes located on the outer membrane of mitochondria and are involved in the catabolism of monoamine neurotransmitters. There are two well-characterized isoenzymes: MAO-A, which predominantly catabolizes serotonin and norepinephrine, and MAO-B, which preferentially catabolizes benzylamine and phenylethylamine. Dopamine and tyramine are metabolized by both isoforms.
To detect the activity of MAO, a luminescent method (MAO-Glo Assay kit, from Promega, Cat # V1401) was used. In this method, a MAO substrate (a derivative of beetle luciferin provided in the kit) is mixed with the compound to be tested (in this case, myosmine and control compounds). Then, the MAO enzymes (either A or B, purchased separately) are added to the mixture and incubated with the reaction for 1 hour at room temperature. The MAO enzymes, if not inhibited by the test compound, will convert the substrate into methyl ester luciferin. Finally, a luciferin detection reagent (provided by the kit) is added (20 minutes at room temperature) to stop the MAO reaction and convert methyl ester luciferin into D-luciferin. […] The luminescent signal is measured and recorded using a luminometer. […]

MAO-A = molecular target: T2, MAO-A (Homo sapiens, UniProt P21397); test: MAO-Glo luminescent assay, MAO-A inhibition; assay type: biochemical; conditions: FIG. 1
T2 construct: purchased
T2 sequence (P21397 1-527): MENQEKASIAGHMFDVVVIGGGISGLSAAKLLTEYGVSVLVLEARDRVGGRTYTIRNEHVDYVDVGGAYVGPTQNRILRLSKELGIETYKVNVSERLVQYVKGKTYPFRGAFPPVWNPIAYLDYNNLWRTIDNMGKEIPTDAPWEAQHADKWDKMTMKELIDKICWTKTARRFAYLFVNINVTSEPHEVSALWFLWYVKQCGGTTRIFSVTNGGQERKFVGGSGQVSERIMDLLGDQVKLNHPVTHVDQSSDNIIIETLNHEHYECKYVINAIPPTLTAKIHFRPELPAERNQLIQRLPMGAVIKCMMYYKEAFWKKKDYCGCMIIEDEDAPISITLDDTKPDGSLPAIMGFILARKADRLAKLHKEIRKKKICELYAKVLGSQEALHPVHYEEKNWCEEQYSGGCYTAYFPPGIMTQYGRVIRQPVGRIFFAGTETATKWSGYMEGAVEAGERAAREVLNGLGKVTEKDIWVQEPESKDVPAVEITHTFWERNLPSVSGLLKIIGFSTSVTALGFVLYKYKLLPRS
Excerpt: as §1
To detect the activity of MAO, a luminescent method (MAO-Glo Assay kit, from Promega, Cat # V1401) was used. In this method, a MAO substrate (a derivative of beetle luciferin provided in the kit) is mixed with the compound to be tested (in this case, myosmine and control compounds). Then, the MAO enzymes (either A or B, purchased separately) are added to the mixture and incubated with the reaction for 1 hour at room temperature. The MAO enzymes, if not inhibited by the test compound, will convert the substrate into methyl ester luciferin. Finally, a luciferin detection reagent (provided by the kit) is added (20 minutes at room temperature) to stop the MAO reaction and convert methyl ester luciferin into D-luciferin. […] The luminescent signal is measured and recorded using a luminometer.
Anatabine was obtained from Emerson Resources, Norristown, Pa.

male-pattern baldness = test: Oral treatment of a person with male-pattern baldness (scalp photographs); assay type: in vivo, human; conditions: oral 60 mg/day, photographs after three weeks and 90 days of treatment (FIG. 3-5)
Experimental: A person and approximately 75 kg in weight was experiencing male-pattern baldness. The individual was orally administered isomyosmine at a dosage of 60 mg/day over the course of three weeks. FIG. 3 is a photograph of the scalp of the individual before treatment. FIG. 4 is a photograph of the scalp of the individual after three weeks of treatment (and a haircut). FIG. 5 is a photograph of the scalp of the individual after 90 days of treatment.

SMILES: C1=NC(c2cccnc2)CC1 (stereo not shown) [isomyosmine, 3-(3,4-dihydro-2H-pyrrol-2-yl)-pyridine]
- inhibiting the activity of MAO-B, comparison of curves (MAO-B): the most potent among the five alkaloids tested
- inhibition at 2000 µM (MAO-A; 2 mM concentration (2,000 micromolar), read-out: inhibition of the enzymatic activity of MAO-A): ~50%
- inhibiting the enzymatic activity of MAO-A, comparison of curves (MAO-A; compared with myosmine, anatabine, anabasine, nornicotine, clorgyline positive control): the most potent of the five
- hair growth on the scalp (male-pattern baldness): significant new growth of healthy, dark-colored hair on the scalp
